According to PubChem BioAssay AID504664 (Sanford-Burnham Center for Chemical Genomics, 2011):
pIC50: −log10 of the molar value. Active and inactive are the calls of the source.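 The calls were made as follows: active = IC50 mean at or below 20 µM; inactive = the rest.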

System: 697 NF-kB-Luc cells, PMA/ionomycin, luciferase luminescence, 16 h
Test: inhibitors of PMA/ionomycin-driven NF-kB luciferase in 697 – 697 B cells, luminescence, set 2, T-cell antigen receptor NF-kB inhibitors, SAR follow-up (AID 504664)

| SMILES | IC50 | pIC50 |
| --- | --- | --- |
| CCCCC(=O)NC(c1ccc(Cl)cc1Cl)c1ccc2cccnc2c1O (stereo not given) | > 79 µM (inactive) |  |
| CNC(=O)CCc1nc(-c2ccc(C(C)(C)C)cc2)no1 |  | 7.52 |
| COc1ccc(C(=O)Nc2ccc(NC(=O)c3cc4ccccc4o3)cc2)cc1OC | > 79 µM (inactive) |  |
| COc1ccc(C(=O)Nc2ccc(NC(=O)c3cc4ccccc4o3)cc2)cc1Cl | > 79 µM (inactive) |  |
| CC(C)CC(=O)NC(c1ccc(C(C)C)cc1)c1ccc2cccnc2c1O (stereo not given) | > 79 µM (inactive) |  |
| O=C(Nc1ccc(N2CCCC2)c(Cl)c1)c1ccc([N+](=O)[O-])o1 | 61.7 µM (inactive) |  |
| Cc1ccc(C(NC(=O)C2CCCCC2)c2ccc3cccnc3c2O)cc1 (stereo not given) | > 79 µM (inactive) |  |
| COc1ccc(C(=O)Nc2ccc(NC(=O)c3cc4ccccc4o3)cc2)cc1[N+](=O)[O-] | > 79 µM (inactive) |  |
| COc1ccc(C(=O)Nc2ccc(NC(=O)c3cc4ccccc4o3)cc2)cc1Br | > 79 µM (inactive) |  |
| Cc1cc(NC(=O)c2ccc3c(c2)OCCO3)ccc1NC(=O)c1cc2ccccc2o1 |  | 4.89 |
| Cc1ccc(C)c(NC(=O)c2ccc([N+](=O)[O-])o2)c1 | > 79 µM (inactive) |  |
| CCCC(=O)NC(c1ccccc1)c1ccc2cccnc2c1O (stereo not given) | > 79 µM (inactive) |  |
| COc1ccccc1C(NC(C)=O)c1ccc2cccnc2c1O (stereo not given) | > 79 µM (inactive) |  |
| CCOc1ccc(-c2nc(CS(=O)(=O)CC(=O)NCc3ccc(F)cc3)c(C)o2)cc1 | > 79 µM (inactive) |  |
| COc1cc(NC(=O)c2ccc3c(c2)OCO3)ccc1NC(=O)c1cc2ccccc2o1 | > 79 µM (inactive) |  |
| CCCC(=O)NC(c1ccccc1Cl)c1ccc2cccnc2c1O (stereo not given) | > 79 µM (inactive) |  |
| CCC(=O)NC(c1ccc(N(C)C)cc1)c1ccc2cccnc2c1O (stereo not given) | > 79 µM (inactive) |  |
| CN1CCN(c2ccccc2NC(=O)c2ccc([N+](=O)[O-])o2)CC1 | > 79 µM (inactive) |  |
| COc1ccc(C(NC(=O)Cc2ccccc2)c2ccc3cccnc3c2O)cc1OC (stereo not given) | > 79 µM (inactive) |  |
| CCCCC(=O)NC(c1ccc(C)cc1)c1ccc2cccnc2c1O (stereo not given) | > 79 µM (inactive) |  |
| CCCCC(=O)NC(c1ccc(OC)cc1)c1ccc2cccnc2c1O (stereo not given) | > 79 µM (inactive) |  |
| CCCCNC(=O)CCc1nc(-c2ccc(C(C)(C)C)cc2)no1 |  | 4.84 |
| CCN(CC)C(=O)CCc1nc(-c2ccc(C(C)(C)C)cc2)no1 | 60.1 µM (inactive) |  |
| CCCCC(=O)NC(c1ccc(N(C)C)cc1)c1ccc2cccnc2c1O (stereo not given) | > 79 µM (inactive) |  |

| SMILES | IC50 | pIC50 |
| --- | --- | --- |
| COc1cc(-c2nc3n(n2)C(c2ccc(F)cc2)C2=C(CCCC2=O)N3)cc(OC)c1OC (stereo not given) | 29 µM (inactive) |  |
| CCCCC(=O)NC(c1ccccc1)c1ccc2cccnc2c1O (stereo not given) | > 79 µM (inactive) |  |
| O=C(Nc1ccc2oc(-c3ccncc3)nc2c1)c1ccc([N+](=O)[O-])o1 | > 79 µM (inactive) |  |
| COc1ccc(C(NC(=O)CCc2ccccc2)c2ccc3cccnc3c2O)cc1 (stereo not given) | > 79 µM (inactive) |  |
| O=C(Nc1nc2c(Br)cc(Br)cc2c(=O)s1)c1ccco1 |  | 5.34 |
| O=C(Nc1ccc2oc(-c3cccnc3)nc2c1)c1ccc([N+](=O)[O-])o1 | > 79 µM (inactive) |  |
| CCCCC(=O)NC(c1ccc(Cl)cc1)c1ccc2cccnc2c1O (stereo not given) | > 79 µM (inactive) |  |
| CCC(=O)NC(c1ccc(C)cc1)c1ccc2cccnc2c1O (stereo not given) | > 79 µM (inactive) |  |
| COc1ccc(C(NC(=O)C(C)C)c2ccc3cccnc3c2O)cc1 (stereo not given) | > 79 µM (inactive) |  |
| Cc1ccc(NC(=O)c2ccc([N+](=O)[O-])o2)cc1C(F)(F)F | > 79 µM (inactive) |  |
| CCCC(=O)NC(c1ccc(C(C)C)cc1)c1ccc2cccnc2c1O (stereo not given) | > 79 µM (inactive) |  |
| CNC(=O)CCc1nc(-c2ccccc2)no1 | > 79 µM (inactive) |  |
| CCCCC(=O)NC(c1ccc(C(C)C)cc1)c1ccc2cccnc2c1O (stereo not given) | > 79 µM (inactive) |  |
| CCOc1ccc(-c2nc(CSCC(=O)NC3CC3)c(C)o2)cc1 |  | 6.68 |
| CCCC(=O)NC(c1ccc(Cl)cc1)c1ccc2cccnc2c1O (stereo not given) | > 79 µM (inactive) |  |
| COc1cc2nc(NC(=O)c3ccccc3)sc(=O)c2cc1OC |  | 6.07 |
| CC(=O)NC(c1ccc(C(C)C)cc1)c1ccc2cccnc2c1O (stereo not given) | > 79 µM (inactive) |  |
| N#Cc1cccc(NC(=O)c2ccc([N+](=O)[O-])o2)c1 | > 79 µM (inactive) |  |
| Cc1cccc(NC(=O)c2ccc([N+](=O)[O-])o2)c1C | > 79 µM (inactive) |  |
| NS(=O)(=O)c1ccc(NC(=O)c2ccc([N+](=O)[O-])o2)cc1 | 58.9 µM (inactive) |  |
| CC(C)c1ccc(C(NC(=O)C2CCCCC2)c2ccc3cccnc3c2O)cc1 (stereo not given) | > 79 µM (inactive) |  |
| Cc1cc(NC(=O)c2ccc([N+](=O)[O-])o2)ccc1NC(=O)c1ccco1 | > 79 µM (inactive) |  |
| CC(=O)NC(c1ccc2ccccc2c1)c1ccc2cccnc2c1O (stereo not given) | > 79 µM (inactive) |  |
| CCN1CCN(c2c(Cl)cccc2NC(=O)c2ccc([N+](=O)[O-])o2)CC1 | 43.7 µM (inactive) |  |

Other lines, results leading:

| IC50 | pIC50 | SMILES |
| --- | --- | --- |
| > 79 µM (inactive) |  | Cc1cc(NC(=O)c2ccc([N+](=O)[O-])o2)cc(-c2nc3ccccc3o2)c1O |
| > 79 µM (inactive) |  | Cc1ccc2nsnc2c1NC(=O)c1ccc([N+](=O)[O-])o1 |
| > 79 µM (inactive) |  | CC(C)CC(=O)NC(c1ccccc1)c1ccc2cccnc2c1O (stereo not given) |
| > 79 µM (inactive) |  | O=C(Nc1ccc(-c2nc3ncccc3o2)cc1)c1ccc([N+](=O)[O-])o1 |
| > 79 µM (inactive) |  | CC(C)c1ccc(C(NC(=O)C2CCCCC2)c2cc([N+](=O)[O-])c3cccnc3c2O)cc1 (stereo not given) |
| > 79 µM (inactive) |  | CCCC(=O)NC(c1ccc(OC)cc1)c1ccc2cccnc2c1O (stereo not given) |
|  | 5.18 | CN(C)C(=O)CCc1nc(-c2ccc(C(C)(C)C)cc2)no1 |
|  | 5.60 | CC(C)(C)NC(=O)CCc1nc(-c2ccc(C(C)(C)C)cc2)no1 |
|  | 6.54 | CCOc1ccc(-c2nc(CSCC(=O)NCc3ccco3)c(C)o2)cc1 |
|  | > 6.80 | CCNC(=O)CCc1nc(-c2ccc(C(C)(C)C)cc2)no1 |
| > 79 µM (inactive) |  | CCOc1ccc(C(=O)Nc2ccc(NC(=O)c3cc4ccccc4o3)cc2)cc1[N+](=O)[O-] |
| > 79 µM (inactive) |  | CCCCC(=O)NC(c1ccc(N(CC)CC)cc1)c1ccc2cccnc2c1O (stereo not given) |
| > 79 µM (inactive) |  | O=C(Nc1ccc2c(c1)CCO2)c1ccc([N+](=O)[O-])o1 |
| > 79 µM (inactive) |  | O=C(Nc1cccc2ncccc12)c1ccc([N+](=O)[O-])o1 |
| > 79 µM (inactive) |  | CCCOc1ccc(C(=O)Nc2ccc(NC(=O)c3cc4ccccc4o3)cc2)cc1 |
| 62.3 µM (inactive) |  | CC(=O)N1CCN(c2ccc(NC(=O)c3ccc([N+](=O)[O-])o3)cc2Cl)CC1 |
| > 79 µM (inactive) |  | CCCC(=O)NC(c1ccccc1OC)c1ccc2cccnc2c1O (stereo not given) |
| > 79 µM (inactive) |  | Cc1ccc(C(NC(=O)C(C)C)c2ccc3cccnc3c2O)cc1 (stereo not given) |
| > 79 µM (inactive) |  | CCCC(=O)NC(c1ccc(C)cc1)c1ccc2cccnc2c1O (stereo not given) |
| > 79 µM (inactive) |  | CC(=O)N1CCc2cc(NC(=O)c3ccc([N+](=O)[O-])o3)ccc21 |
| 31.9 µM (inactive) |  | Cc1cc(C)cc(NC(=O)c2ccc([N+](=O)[O-])o2)c1 |
|  | 6.26 | CC(C)(C)c1ccc(-c2noc(CCC(N)=O)n2)cc1 |
| > 79 µM (inactive) |  | Cc1ccc(NC(=O)c2ccc([N+](=O)[O-])o2)cc1C |
| > 79 µM (inactive) |  | COc1ccc(C)cc1NC(=O)c1ccc([N+](=O)[O-])o1 |
| > 79 µM (inactive) |  | CCOc1ccc(NC(=O)c2ccc([N+](=O)[O-])o2)cc1 |
| > 79 µM (inactive) |  | Cc1cc(-c2nc3ncccc3o2)ccc1NC(=O)c1ccc([N+](=O)[O-])o1 |
| > 79 µM (inactive) |  | COc1ccc(C(NC(=O)CC(C)C)c2ccc3cccnc3c2O)cc1OC (stereo not given) |
